Source: ChEMBL document CHEMBL1158895, “Tartrolone C: a novel insecticidal macrodiolide produced by Streptomyces sp. CP1130” (2003)

What was measured:
[1] = tested on: Heliothis virescens; assay: Antilepidopteran activity against tobacco budworm eggs assessed as minimum emergent larvicide concentration after 6 to 7 days; assay type: functional
[2] = tested on: Spodoptera exigua; assay: Antilepidopteran activity against beet armyworm eggs assessed as minimum emergent larvicide concentration after 6 to 7 days; assay type: functional

CC[C@H]1CCC[C@H](O[C@H]2CC[C@H](N(C)C)[C@@H](C)O2)[C@@H](C)C(=O)C2=C[C@@H]3[C@@H](C=C[C@@H]4C[C@@H](O[C@@H]5O[C@@H](C)[C@H](OC)[C@@H](OC)[C@H]5OC)C[C@@H]34)[C@@H]2CC(=O)O1 [SPINOSYN A]
Activity [1]: 0.4 ppm | Activity [2]: 3 ppm

C[C@@H]1C(=O)C[C@@H](O)CC/C=C/C=C\CC[C@H](C)OC(=O)[C@@H]2O[B-]34O[C@@H](C(=O)O[C@@H](C)CC/C=C\C=C\CC[C@H](O)CC(=O)[C@@H](C)[C@@H]5CC[C@](C)(O)[C@]2(O5)O3)[C@@]2(O[C@H]1CC[C@]2(C)O)O4 [TARTROLON C]
Activity [1]: 125 ppm | Activity [2]: 125 ppm
